Data published in ChEMBL document CHEMBL1909046, “DrugMatrix in vitro pharmacology data”.

Legend:
[1] = biological target: T1, Cholecystokinin receptor type A (Homo sapiens, UniProt P32238); assay type: cell membranes, Membrane; details: 1321-n1; note: in other assays of this panel Not Active means under 50% inhibition at 10 µM
T1 sequence (P32238 whole entry): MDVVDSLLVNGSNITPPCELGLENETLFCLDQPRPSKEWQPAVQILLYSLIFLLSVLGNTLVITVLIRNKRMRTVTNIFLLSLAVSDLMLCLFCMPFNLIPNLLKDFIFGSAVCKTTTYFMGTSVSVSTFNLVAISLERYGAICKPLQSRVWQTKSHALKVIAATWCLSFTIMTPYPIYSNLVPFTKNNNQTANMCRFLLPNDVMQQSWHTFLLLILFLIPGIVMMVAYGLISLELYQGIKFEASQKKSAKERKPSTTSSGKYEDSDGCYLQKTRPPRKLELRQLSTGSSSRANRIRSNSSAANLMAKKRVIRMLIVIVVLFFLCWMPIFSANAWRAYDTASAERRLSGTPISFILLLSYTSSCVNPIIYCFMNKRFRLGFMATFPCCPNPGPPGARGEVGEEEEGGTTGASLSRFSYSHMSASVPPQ

[2] = biological target: Epidermal growth factor receptor (Homo sapiens, UniProt P00533); test: DRUGMATRIX: Protein Tyrosine Kinase, EGF Receptor enzyme inhibition (substrate: Poly(Glu:Tyr)); assay type: cell-based, Insect cells; details: insect cells; Not Active = under 50% inhibition at 10 µM
[3] = biological target: Aldo-keto reductase family 1 member B1 (Rattus norvegicus, UniProt P07943); test: biochemical; assay type: tissue-based, Lens of camera-type eye;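 note: inhibition of aldose reductase enzyme activity, measured with DL-glyceraldehyde as the substrate; in other assays of this panel Not Active means under 50% inhibition at 10 µM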
[4] = DRUGMATRIX: Nicotinic Acetylcholine radioligand binding (ligand: [125I] Epibatidine); assay type: cell membranes, Membrane; details: imr-32; Not Active = under 50% inhibition at 10 µM
[5] = biological target: T2, Alpha-1B adrenergic receptor (Rattus norvegicus, UniProt P15823); test: DRUGMATRIX: Alpha-1B adrenergic receptor radioligand binding (ligand: prazosin); assay type: cell membranes, Wistar, Liver, Membrane; details: Not Active = under 50% inhibition at 10 µM
T2 sequence (P15823 whole entry): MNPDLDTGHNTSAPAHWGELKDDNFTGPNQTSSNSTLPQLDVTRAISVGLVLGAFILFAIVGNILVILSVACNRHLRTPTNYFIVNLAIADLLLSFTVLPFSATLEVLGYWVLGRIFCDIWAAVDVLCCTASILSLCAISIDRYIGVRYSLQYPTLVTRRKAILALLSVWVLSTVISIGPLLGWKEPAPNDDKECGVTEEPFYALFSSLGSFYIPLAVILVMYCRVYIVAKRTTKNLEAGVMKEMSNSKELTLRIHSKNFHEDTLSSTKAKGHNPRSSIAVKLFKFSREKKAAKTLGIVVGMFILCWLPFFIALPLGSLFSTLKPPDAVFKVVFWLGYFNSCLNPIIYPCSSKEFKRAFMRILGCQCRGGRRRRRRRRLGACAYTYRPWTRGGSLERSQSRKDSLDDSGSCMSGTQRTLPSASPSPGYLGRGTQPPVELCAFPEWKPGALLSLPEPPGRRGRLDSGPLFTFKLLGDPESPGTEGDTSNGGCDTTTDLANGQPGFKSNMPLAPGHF

[6] = DRUGMATRIX: Phosphodiesterase PDE3 enzyme inhibition (substrate: [3H]cAMP + cAMP); assay type: tissue-based, Homo sapiens; details: platelet; Not Active = under 50% inhibition at 10 µM
[7] = biological target: T3, Nitric oxide synthase, inducible (Mus musculus, UniProt P29477); design: species or system Escherichia coli;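 note: inhibition of iNOS enzyme activity measured with L-arginine as substrate; in other assays of this panel Not Active means under 50% inhibition at 10 µM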
T3 sequence (P29477 whole entry): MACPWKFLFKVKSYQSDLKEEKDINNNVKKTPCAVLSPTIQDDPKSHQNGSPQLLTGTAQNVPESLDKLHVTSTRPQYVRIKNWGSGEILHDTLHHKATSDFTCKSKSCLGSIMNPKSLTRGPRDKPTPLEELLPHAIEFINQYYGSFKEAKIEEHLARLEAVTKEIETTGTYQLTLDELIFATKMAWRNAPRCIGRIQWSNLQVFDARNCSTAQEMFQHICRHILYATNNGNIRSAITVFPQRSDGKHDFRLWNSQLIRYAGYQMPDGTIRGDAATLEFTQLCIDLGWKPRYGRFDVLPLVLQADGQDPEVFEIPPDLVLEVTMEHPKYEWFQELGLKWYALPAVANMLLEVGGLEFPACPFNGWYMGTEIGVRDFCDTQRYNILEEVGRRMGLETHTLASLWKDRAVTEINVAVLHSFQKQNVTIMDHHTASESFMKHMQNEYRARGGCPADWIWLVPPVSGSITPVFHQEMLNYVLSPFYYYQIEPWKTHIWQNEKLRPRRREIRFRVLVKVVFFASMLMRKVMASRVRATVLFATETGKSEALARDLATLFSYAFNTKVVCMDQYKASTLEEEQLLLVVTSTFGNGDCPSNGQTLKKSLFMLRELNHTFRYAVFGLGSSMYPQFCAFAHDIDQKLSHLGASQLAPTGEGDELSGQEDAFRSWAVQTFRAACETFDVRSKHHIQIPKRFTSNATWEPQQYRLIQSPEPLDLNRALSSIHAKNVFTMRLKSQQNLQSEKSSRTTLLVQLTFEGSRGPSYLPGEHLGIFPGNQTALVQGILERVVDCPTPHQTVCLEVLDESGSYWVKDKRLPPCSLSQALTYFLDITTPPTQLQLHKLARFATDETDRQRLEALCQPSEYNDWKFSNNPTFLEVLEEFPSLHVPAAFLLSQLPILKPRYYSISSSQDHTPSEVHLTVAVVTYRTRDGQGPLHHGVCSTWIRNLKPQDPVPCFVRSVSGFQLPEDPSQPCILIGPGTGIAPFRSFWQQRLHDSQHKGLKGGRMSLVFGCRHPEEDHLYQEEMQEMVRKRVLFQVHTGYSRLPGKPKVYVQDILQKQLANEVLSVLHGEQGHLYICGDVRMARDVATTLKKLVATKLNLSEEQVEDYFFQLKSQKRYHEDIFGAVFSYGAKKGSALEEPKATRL

Sequence of Epidermal growth factor receptor (P00533 whole entry): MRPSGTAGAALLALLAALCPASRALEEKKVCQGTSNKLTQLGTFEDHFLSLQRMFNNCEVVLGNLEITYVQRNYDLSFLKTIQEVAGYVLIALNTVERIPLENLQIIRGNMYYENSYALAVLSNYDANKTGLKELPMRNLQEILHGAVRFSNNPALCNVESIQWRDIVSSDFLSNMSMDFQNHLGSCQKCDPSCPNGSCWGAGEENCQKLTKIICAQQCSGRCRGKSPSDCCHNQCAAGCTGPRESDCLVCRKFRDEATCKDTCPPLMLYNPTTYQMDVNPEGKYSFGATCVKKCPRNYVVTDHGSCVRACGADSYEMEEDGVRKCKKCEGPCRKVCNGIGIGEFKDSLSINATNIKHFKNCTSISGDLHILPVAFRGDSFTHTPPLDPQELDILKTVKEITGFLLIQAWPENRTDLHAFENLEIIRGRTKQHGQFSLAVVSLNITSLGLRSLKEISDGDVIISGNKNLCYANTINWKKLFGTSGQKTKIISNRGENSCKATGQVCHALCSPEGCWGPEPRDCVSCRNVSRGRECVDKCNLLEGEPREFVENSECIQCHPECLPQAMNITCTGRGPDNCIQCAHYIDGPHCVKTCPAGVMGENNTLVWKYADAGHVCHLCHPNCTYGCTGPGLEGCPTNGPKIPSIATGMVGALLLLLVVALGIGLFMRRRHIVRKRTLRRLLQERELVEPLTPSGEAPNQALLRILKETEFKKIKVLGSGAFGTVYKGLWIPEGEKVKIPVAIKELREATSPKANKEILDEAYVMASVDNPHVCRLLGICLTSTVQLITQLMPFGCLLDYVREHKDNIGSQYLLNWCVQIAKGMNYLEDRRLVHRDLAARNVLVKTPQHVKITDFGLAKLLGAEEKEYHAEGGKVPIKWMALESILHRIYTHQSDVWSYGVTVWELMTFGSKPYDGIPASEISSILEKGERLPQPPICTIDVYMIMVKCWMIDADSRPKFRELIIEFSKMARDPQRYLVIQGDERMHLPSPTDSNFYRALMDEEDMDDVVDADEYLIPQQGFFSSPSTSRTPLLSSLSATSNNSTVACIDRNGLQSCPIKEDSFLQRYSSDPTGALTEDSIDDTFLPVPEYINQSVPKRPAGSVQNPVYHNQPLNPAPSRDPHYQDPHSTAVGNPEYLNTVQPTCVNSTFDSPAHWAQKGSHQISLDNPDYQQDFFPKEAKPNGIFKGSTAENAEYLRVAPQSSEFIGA

O=C(O)Cc1ccc(-c2ccccc2)cc1 [FELBINAC]
Not Active: IC50 [1] | IC50 [2] | IC50 [3] | IC50 [4] | Ki [4] | IC50 [5] | IC50 [6] | Ki [6] | IC50 [7]

CCOC(=O)C1=C(C)NC(C)=C(C(=O)OC)C1c1cccc(Cl)c1Cl (stereo not given) [FELODIPINE]
Not Active: IC50 [1] | IC50 [2] | IC50 [3] | IC50 [4] | Ki [4] | IC50 [5] | IC50 [6] | Ki [6] | IC50 [7]

CC(C(=O)O)c1ccc(-c2ccccc2)c(F)c1 (stereo not given) [FLURBIPROFEN]
Not Active: IC50 [1] | IC50 [2] | IC50 [3] | IC50 [4] | Ki [4] | IC50 [5] | IC50 [6] | Ki [6] | IC50 [7]

Cc1cn[nH]c1 [FOMEPIZOLE]
Not Active: IC50 [1] | IC50 [2] | IC50 [3] | IC50 [4] | Ki [4] | IC50 [5] | IC50 [6] | Ki [6] | IC50 [7]

NC[C@@H]1O[C@H](O[C@H]2[C@@H](O)[C@H](O[C@@H]3[C@@H](O)[C@H](N)C[C@H](N)[C@H]3O[C@H]3O[C@H](CN)[C@@H](O)[C@H](O)[C@H]3N)O[C@@H]2CO)[C@H](N)[C@@H](O)[C@@H]1O [FRAMYCETIN]
Not Active: IC50 [1] | IC50 [2] | IC50 [3] | IC50 [4] | Ki [4] | IC50 [5] | IC50 [6] | Ki [6] | IC50 [7]

C[C@H]([C@](O)(Cn1cncn1)c1ccc(F)cc1F)S(C)(=O)=O [GENACONAZOLE]
Not Active: IC50 [1] | IC50 [2] | IC50 [3] | IC50 [4] | Ki [4] | IC50 [5] | IC50 [6] | Ki [6] | IC50 [7]

Cc1c(F)c(N2CCNC(C)C2)cc2c1c(=O)c(C(=O)O)cn2C1CC1 (stereo not given) [GREPAFLOXACIN]
Not Active: IC50 [1] | IC50 [2] | IC50 [3] | IC50 [4] | Ki [4] | IC50 [5] | IC50 [6] | Ki [6] | IC50 [7]

COc1ccccc1OCC(O)CO (stereo not given) [GUAIFENESIN]
Not Active: IC50 [1] | IC50 [2] | IC50 [3] | IC50 [4] | Ki [4] | IC50 [5] | IC50 [6] | Ki [6] | IC50 [7]

C[C@]12CCC(=O)C=C1CC[C@@H]1[C@@H]2[C@@H](O)C[C@@]2(C)[C@H]1CC[C@]2(O)C(=O)CO [HYDROCORTISONE]
Not Active: IC50 [1] | IC50 [2] | IC50 [3] | IC50 [4] | Ki [4] | IC50 [5] | IC50 [6] | Ki [6] | IC50 [7]

C/C=C\c1ccc(O)c(OC)c1 [ISOEUGENOL]
Not Active: IC50 [1] | IC50 [2] | IC50 [3] | IC50 [4] | Ki [4] | IC50 [5] | IC50 [6] | Ki [6] | IC50 [7]
